According to patent publication US12552804B2, “Tricyclic heterocycles as FGFR inhibitors” (Incyte Corporation, priority 2019, dated 2026):

Target: wild-type un-phosphorylated FGFR3 protein (Homo sapiens, UniProt P22607)
Experiment: FGFR Enzymatic Assay (FRET detection of peptide phosphorylation)
Format: biochemical
Conditions: pre-incubated for 4 hours, read-out: FGFR3_Ki
Experimental: The inhibitor potency of the exemplified compounds was determined in an enzyme discontinuous assay that measures peptide phosphorylation using FRET measurements to detect product formation. Inhibitors were serially diluted in DMSO and a volume of 0.2 μL was transferred to the wells of a 384-well plate. A 5 μL/well volume of enzyme isoforms of FGFR (−1, −2, −3 wild-type and mutant isoforms, −4) including phosphorylated and un-phosphorylated proteins diluted in assay buffer (50 mM HEPES, 10 mM MgCl2, 1 mM EGTA, 0.01% Tween-20, 5 mM DTT, pH 7.5) was added to the plate and pre-incubated with inhibitor for 5 to 15 minutes at ambient temperature. Appropriate controls (enzyme blank and enzyme with no inhibitor) were included on the plate. […] The ATP Km values were pre-determined in a separate series of experiments. The reaction plate was incubated at 25° C. for 1 hr and the reactions were ended with the addition of 5 μL/well of quench solution (50 mM Tris, 150 mM NaCl, 0.5 mg/mL BSA, pH 7.8; 45 mM EDTA, 600 nM staurosporin, with Perkin Elmer Lance Reagents at 3.75 nM Eu-antibody PY20 and 180 nM APC-Streptavidin). The plate was allowed to equilibrate for ˜10 minutes at ambient temperature before scanning on a PheraStar plate reader (BMG Labtech) instrument.
Either GraphPad prism or XLfit was used to analyze the data. The IC50 values were derived by fitting the data to a four parameter logistic equation producing a sigmoidal dose-response curve with a variable Hill coefficient. Prism equation: Y=Bottom+(Top−Bottom)/(1+10^((LogIC50−X)*Hill slope)); XLfit equation: Y=(A+((B−A)/(1+((X/C)^D)))) where X is the logarithm of inhibitor concentration and Y is the response.
The data in Table 1 was measured in wild-type un-phosphorylated FGFR3 protein.

Sequence of wild-type un-phosphorylated FGFR3 protein (P22607 23-806): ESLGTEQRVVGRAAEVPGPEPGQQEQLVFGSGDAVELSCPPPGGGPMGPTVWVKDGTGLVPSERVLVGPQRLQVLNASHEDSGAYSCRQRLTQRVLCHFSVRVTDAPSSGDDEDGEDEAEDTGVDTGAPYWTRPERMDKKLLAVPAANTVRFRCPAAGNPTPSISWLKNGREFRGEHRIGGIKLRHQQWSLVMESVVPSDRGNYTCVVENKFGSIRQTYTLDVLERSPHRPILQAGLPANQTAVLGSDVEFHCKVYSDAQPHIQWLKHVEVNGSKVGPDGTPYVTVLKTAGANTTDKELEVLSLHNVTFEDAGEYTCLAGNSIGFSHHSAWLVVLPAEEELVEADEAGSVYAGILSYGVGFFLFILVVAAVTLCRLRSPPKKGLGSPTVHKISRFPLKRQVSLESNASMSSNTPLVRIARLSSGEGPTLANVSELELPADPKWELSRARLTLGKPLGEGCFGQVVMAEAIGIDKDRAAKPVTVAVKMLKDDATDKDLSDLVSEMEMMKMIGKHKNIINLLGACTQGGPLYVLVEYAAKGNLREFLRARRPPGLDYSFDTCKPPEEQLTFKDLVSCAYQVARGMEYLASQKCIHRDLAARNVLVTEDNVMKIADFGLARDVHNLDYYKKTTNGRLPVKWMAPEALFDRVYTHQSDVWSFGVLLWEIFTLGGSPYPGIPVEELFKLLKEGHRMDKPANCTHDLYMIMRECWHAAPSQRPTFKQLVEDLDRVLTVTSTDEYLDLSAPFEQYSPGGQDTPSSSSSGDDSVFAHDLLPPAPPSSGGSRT

Row | SMILES | Ki [nM]
1 | CN(C)CCn1cc(-c2cnc3ccn4c(CO)c(-c5c(Cl)cccc5Cl)nc4c3c2)cn1 [Example 72, (2-(2,6-Dichlorophenyl)-9-(1-(2-(dimethylamino)ethyl)-1H-pyrazol-4-yl)imidazo[2,1-f][1,6]naphthyridin-3-yl)methanol] | < 10
2 | Cc1c(-c2c(Cl)cccc2Cl)nc2c3cc(-c4cnn(C)c4)c(O)nc3ccn12 [Example 31, 2-(2,6-Dichlorophenyl)-3-methyl-9-(1-methyl-1H-pyrazol-4-yl)imidazo[2,1-f][1,6]naphthyridin-8-ol] | 10 to 100
3 | OCc1c(-c2c(Cl)cccc2Cl)nc2c3cc(-c4cnn(CCN5CCOCC5)c4)cnc3ccn12 [Example 82, (2-(2,6-Dichlorophenyl)-9-(1-(2-morpholinoethyl)-1H-pyrazol-4-yl)imidazo[2,1-f][1,6]naphthyridin-3-yl)methanol] | < 10
4 | CN1CCC(c2nc3c4nc(-c5cnn(C)c5)cnc4ccc3n2C)CC1 [Example 23, 3-Methyl-8-(1-methyl-1H-pyrazol-4-yl)-2-(1-methylpiperidin-4-yl)-3H-imidazo[4,5-f]quinoxaline] | ≥ 400
5 | Cc1ccoc1-c1nc2c3nc(-c4cnn(C)c4)cnc3ccc2n1C [Example 20, 3-Methyl-8-(1-methyl-1H-pyrazol-4-yl)-2-(3-methylfuran-2-yl)-3H-imidazo[4,5-f]quinoxaline] | 100 to 400
6 | CC(C)n1cc(-c2cnc3ccn4c(CO)c(-c5c(Cl)cccc5Cl)nc4c3c2)cn1 [Example 73, (2-(2,6-Dichlorophenyl)-9-(1-isopropyl-1H-pyrazol-4-yl)imidazo[2,1-f][1,6]naphthyridin-3-yl)methanol] | < 10
7 | OCc1c(-c2c(Cl)cccc2Cl)nc2c3cc(-c4cnn(C(F)F)c4)cnc3ccn12 [Example 74, (2-(2,6-Dichlorophenyl)-9-(1-(difluoromethyl)-1H-pyrazol-4-yl)imidazo[2,1-f][1,6]naphthyridin-3-yl)methanol] | < 10
8 | Cc1c(C2CC2)nc2c3cc(-c4cnn(C)c4)cnc3ccn12 [Example 67, 2-Cyclopropyl-3-methyl-9-(1-methyl-1H-pyrazol-4-yl)imidazo[2,1-f][1,6]naphthyridine] | 100 to 400
9 | CS(=O)(=O)CCn1cc(-c2cnc3ccn4c(CO)c(-c5c(Cl)cccc5Cl)nc4c3c2)cn1 [Example 80, (2-(2,6-Dichlorophenyl)-9-(1-(2-(methylsulfonyl)ethyl)-1H-pyrazol-4-yl)imidazo[2,1-f][1,6]naphthyridin-3-yl)methanol] | < 10
10 | C=CC(=O)Nc1cccc(-c2nc3c4cc(-c5cnn(C)c5)cnc4ccn3c2C)c1 [Example 35, N-(3-(3-Methyl-9-(1-methyl-1H-pyrazol-4-yl)imidazo[2,1-f][1,6]naphthyridin-2-yl)phenyl)acrylamide] | 10 to 100
11 | CC(=O)N1CC(c2cncc(-c3cnc4ccn5c(C)c(-c6c(Cl)cccc6Cl)nc5c4c3)c2)C1 [Example 62, 1-(3-(5-(2-(2,6-Dichlorophenyl)-3-methylimidazo[2,1-f][1,6]naphthyridin-9-yl)pyridin-3-yl)azetidin-1-yl)ethan-1-one] | 10 to 100
12 | Cn1cc(-c2cnc3ccc4c(nc(N5[C@@H]6CC[C@H]5C(=O)NC6)n4C)c3n2)cn1 [Example 24, (1S,5R)-8-(3-Methyl-8-(1-methyl-1H-pyrazol-4-yl)-3H-imidazo[4,5-f]quinoxalin-2-yl)-3,8-diazabicyclo[3.2.1]octan-2-one] | ≥ 400

The next lines start with the values.

Row | Ki [nM] | SMILES
13 | < 10 | Cc1c(-c2c(Cl)cccc2Cl)nc2c3cc(-c4cnn([C@H]5CC[C@H](O)CC5)c4)cnc3ccn12 [Example 48, (1r,4r)-4-(4-(2-(2,6-Dichlorophenyl)-3-methylimidazo[2,1-f][1,6]naphthyridin-9-yl)-1H-pyrazol-1-yl)cyclohexan-1-ol]
14 | < 10 | CC(=O)N1CCC(n2cc(-c3cnc4ccn5cc(-c6c(Cl)cccc6Cl)nc5c4c3)cn2)C1 (stereo not shown) [Example 15, 1-(3-(4-(2-(2,6-Dichlorophenyl)imidazo[2,1-f][1,6]naphthyridin-9-yl)-1H-pyrazol-1-yl)pyrrolidin-1-yl)ethan-1-one]
15 | 10 to 100 | CC(C)c1c(-c2ccccc2Cl)nc2c3cc(-c4cnn([C@H]5CCN(C(=O)CO)C5)c4)cnc3ccn12 [Example 65, (S)-1-(3-(4-(2-(2-Chlorophenyl)-3-isopropylimidazo[2,1-f][1,6]naphthyridin-9-yl)-1H-pyrazol-1-yl)pyrrolidin-1-yl)-2-hydroxyethan-1-one]
16 | 100 to 400 | Cn1cc(-c2cnc3ccn4c(-c5cnn(C)c5)c(-c5ccccc5Cl)nc4c3c2)cn1 [Example 5, 2-(2-Chlorophenyl)-3,9-bis(1-methyl-1H-pyrazol-4-yl)imidazo[2,1-f][1,6]naphthyridine]
17 | 100 to 400 | C=CC(=O)Nc1ccccc1-c1nc2c3cc(-c4cnn(C)c4)cnc3ccn2c1C [Example 36, N-(2-(3-Methyl-9-(1-methyl-1H-pyrazol-4-yl)imidazo[2,1-f][1,6]naphthyridin-2-yl)phenyl)acrylamide]
18 | < 10 | Cn1cc(-c2cnc3ccn4c(CO)c(-c5c(Cl)cccc5Cl)nc4c3c2)cn1 [Example 68, (2-(2,6-Dichlorophenyl)-9-(1-methyl-1H-pyrazol-4-yl)imidazo[2,1-f][1,6]naphthyridin-3-yl)methanol]
19 | < 10 | O=C(O)[C@H]1CC[C@H](n2cc(-c3cnc4ccn5c(C6CC6)c(-c6ccccc6Cl)nc5c4c3)cn2)CC1 [Example 16, (1R,4R)-4-(4-(2-(2-Chlorophenyl)-3-cyclopropylimidazo[2,1-f][1,6]naphthyridin-9-yl)-1H-pyrazol-1-yl)cyclohexane-1-carboxylic acid]
20 | < 10 | CN(C)C(=O)N1CCC(n2cc(-c3cnc4ccn5cc(-c6c(Cl)cccc6Cl)nc5c4c3)cn2)C1 (stereo not shown) [Example 50, 3-(4-(2-(2,6-Dichlorophenyl)imidazo[2,1-f][1,6]naphthyridin-9-yl)-1H-pyrazol-1-yl)-N,N-dimethylpyrrolidine-1-carboxamide]
21 | < 10 | CC(=O)N1CCC2CC2(n2cc(-c3cnc4ccn5c(C)c(-c6c(Cl)cccc6Cl)nc5c4c3)cn2)C1 (stereo not shown) [Example 60, 1-(1-(4-(2-(2,6-Dichlorophenyl)-3-methylimidazo[2,1-f][1,6]naphthyridin-9-yl)-1H-pyrazol-1-yl)-3-azabicyclo[4.1.0]heptan-3-yl)ethan-1-one]
22 | 10 to 100 | COc1cccc(F)c1-c1nc2c3cc(-c4cnn([C@H]5CCN(C(=O)CO)C5)c4)cnc3ccn2c1C [Example 28, (S)-1-(3-(4-(2-(2-Fluoro-6-methoxyphenyl)-3-methylimidazo[2,1-f][1,6]naphthyridin-9-yl)-1H-pyrazol-1-yl)pyrrolidin-1-yl)-2-hydroxyethan-1-one]
23 | < 10 | COc1cc(OC)cc(-c2c(-c3ccccc3Cl)nc3c4cc(-c5cnn(C)c5)cnc4ccn23)c1 [Example 4, 2-(2-Chlorophenyl)-3-(3,5-dimethoxyphenyl)-9-(1-methyl-1H-pyrazol-4-yl)imidazo[2,1-f][1,6]naphthyridine]
24 | < 10 | Cc1c(-c2c(Cl)cccc2Cl)nc2c3cc(-c4cnn([C@H]5CCN(C(=O)CO)C5)c4)cnc3ccn12 [Example 53, (S)-1-(3-(4-(2-(2,6-Dichlorophenyl)-3-methylimidazo[2,1-f][1,6]naphthyridin-9-yl)-1H-pyrazol-1-yl)pyrrolidin-1-yl)-2-hydroxyethan-1-one]
25 | < 10 | Cc1c(-c2c(Cl)cccc2Cl)nc2c3cc(-c4cnn(C5CN(C(=O)C6(N)CCOCC6)C5)c4)cnc3ccn12 [Example 40, (4-Aminotetrahydro-2H-pyran-4-yl)(3-(4-(2-(2,6-dichlorophenyl)-3-methylimidazo[2,1-f][1,6]naphthyridin-9-yl)-1H-pyrazol-1-yl)azetidin-1-yl)methanone]
